Assay results reported in US9562031B1, “Phenethyldihydrobenzodioxolones and methods of use” (Sequoia Sciences, Inc., priority 2015, dated 2017).
Where two headings read alike, the source gives them in different places.

Columns and labels:
[1] = test system: NCI-H460 (large cell lung carcinoma) cells; experiment: antiproliferation assay (72 h, CELLTITER 96), NCI-H460; assay type: cell-based, human; settings: Homo sapiens
How it was run: (§1)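 Human M14 melanoma and NCI-H460 lung carcinoma cells in RPMI-1640/10% FBS, seeded at 5×10^2–5×10^4 cells/well and adhered overnight, then exposed to seven compound concentrations for 72 h at 37 °C. Viable cells read by CellTiter 96 AQueous (MTS); IC50 = concentration giving 50% of maximal growth inhibition.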

OVCAR-4 cells [2] = experiment: antiproliferation assay, OVCAR-4; assay type: cell-based; settings: Homo sapiens
Method: (§2) For the antiproliferation assay, NCI-H460 (large cell lung carcinoma) or M14 (amelanotic melanoma) cells were grown in RPMI-1640 with 10% FBS supplemented with L-glutamine and HEPES. Cells were seeded into 96-well plates at 5×10^2 to 5×10^4 cells/well and allowed to adhere overnight; the medium was then removed. A stock solution of test compound in DMSO was diluted in medium to generate a series of working solutions. Aliquots (100 μl) of the working solutions were then added to the appropriate test wells to expose cells to the final concentrations of compound in a total volume of 100 μl. Seven different concentrations were tested, with 2-5 wells per concentration. Camptothecin was used as a positive control; wells containing vehicle without compound were used as negative controls. Plates were kept for 72 h in a 37° C., 5% CO2 incubator. After incubation, viable cells were detected with the CELLTITER 96 AQueous Non-Radioactive Cell Proliferation Assay (Promega), and IC50 values were determined using GraphPad Prism 5 software.
(§3) Antiproliferation of several of the active compounds was tested against additional cell lines.

MES-SA/Dx5 cells = experiment: antiproliferation assay, MES-SA/Dx5; assay type: cell-based; settings: Homo sapiens
Method: as §2, §3
(§4) Compound 4 was tested for antiproliferation activity against several paclitaxel-resistant human cancer cell lines.

[3] = test system: M14 (amelanotic melanoma) cells; experiment: antiproliferation assay (72 h, CELLTITER 96), M14; assay type: cell-based, human; settings: Homo sapiens
How it was run: as §1

UO-31 cells [4] = experiment: antiproliferation assay, paclitaxel-resistant UO-31; assay type: cell-based; settings: Homo sapiens
Method: as §2, §4

ACHN cells = experiment: antiproliferation assay, paclitaxel-resistant ACHN; assay type: cell-based; settings: Homo sapiens
Method: as §2, §4

MOLT-4 cells = experiment: antiproliferation assay, MOLT-4; assay type: cell-based; settings: Homo sapiens
Method: as §2, §3

[5] = test system: LOX-IMVI (melanoma) xenograft tumors; experiment: tumor growth inhibition, LOX-IMVI murine xenograft model; assay type: in vivo, mice
Method: Tumor growth inhibition of compound 4 was measured in several murine xenograft models, and the results of individual experiments are listed in Table 14. Tumors were initiated by subcutaneous injection of either tumor cells from cell culture or tumor fragments from continuous in vivo passage. When tumors reached volumes between approximately 100 and 200 mm^3, the mice were divided into vehicle and treatment groups. Compound or vehicle was administered by IP injection in a volume of 5-10 mL/kg.
Changes in tumor weight (delta weights) for each treated (T) and control (C) group are calculated for each day tumors are measured by subtracting the median tumor weight on the first day of treatment (staging day) from the median tumor weight on the specified observation day. These values are used to calculate a percent T/C as follows: % T/C=(delta T/delta C)×100. The optimal T/C is the minimal value obtained after the first treatment.

LOX-IMVI cells = experiment: antiproliferation assay, LOX-IMVI; assay type: cell-based; settings: Homo sapiens
Method: as §2, §3

HCT-15 cells = experiment: antiproliferation assay, paclitaxel-resistant HCT-15; assay type: cell-based; settings: Homo sapiens
Method: as §2, §4

786-0 cells = experiment: NCI-60 panel antiproliferation, 786-0; assay type: cell-based, human; settings: Homo sapiens, NCI 60-cell panel
Method: (§5) Bifidenone and Compound 37 were tested for antiproliferation activity against the NCI-60 panel of cancer cell lines. COMPARE analysis was then conducted to compare the activity “fingerprint” of bifidenone to those of known classes of compounds (Zhou, B.-N., Hoch, J. M., Johnson, R. K., Mattern, M. R., Eng, W.-K., Ma, J., Hecht, S. M., Newman, D. J., Kingston, D. G. I., 2000. Use of COMPARE Analysis to Discover New Natural Product Drugs: Isolation of Camptothecin and 9-Methoxycamptothecin from a New Source. Journal of Natural Products 63, 1273-1276.).

M14 cells = experiment: NCI-60 panel antiproliferation, M14; assay type: cell-based, human; settings: Homo sapiens, NCI 60-cell panel
Method: as §5

HOP-92 cells = experiment: NCI-60 panel antiproliferation, HOP-92; assay type: cell-based, human; settings: Homo sapiens, NCI 60-cell panel
Method: as §5

OVCAR-4 cells [6] = experiment: NCI-60 panel antiproliferation, OVCAR-4; assay type: cell-based, human; settings: Homo sapiens, NCI 60-cell panel
Method: as §5

UO-31 cells [7] = experiment: NCI-60 panel antiproliferation, UO-31; assay type: cell-based, human; settings: Homo sapiens, NCI 60-cell panel
Method: as §5

NCI-H23 cells = experiment: NCI-60 panel antiproliferation, NCI-H23; assay type: cell-based, human; settings: Homo sapiens, NCI 60-cell panel
Method: as §5

T-47D cells = experiment: NCI-60 panel antiproliferation, T-47D; assay type: cell-based, human; settings: Homo sapiens, T47D, NCI 60-cell panel
Method: as §5

MDA-MB-435 cells = experiment: NCI-60 panel antiproliferation, MDA-MB-435; assay type: cell-based, human; settings: Homo sapiens, NCI 60-cell panel
Method: as §5

SNB-19 cells = experiment: NCI-60 panel antiproliferation, SNB-19; assay type: cell-based, human; settings: Homo sapiens, NCI 60-cell panel
Method: as §5

SW-620 cells = experiment: NCI-60 panel antiproliferation, SW-620; assay type: cell-based, human; settings: Homo sapiens, NCI 60-cell panel
Method: as §5

SK-Mel-5 cells = experiment: NCI-60 panel antiproliferation, SK-MEL-5; assay type: cell-based, human; settings: Homo sapiens, NCI 60-cell panel
Method: as §5

NCI-H322M cells = experiment: NCI-60 panel antiproliferation, NCI-H322M; assay type: cell-based, human; settings: Homo sapiens, NCI 60-cell panel
Method: as §5

HCC-2998 cells = experiment: NCI-60 panel antiproliferation, HCC-2998; assay type: cell-based, human; settings: Homo sapiens, NCI 60-cell panel
Method: as §5

OVCAR-5 cells = experiment: NCI-60 panel antiproliferation, OVCAR-5; assay type: cell-based, human; settings: Homo sapiens, NCI 60-cell panel
Method: as §5

SF-295 cells = experiment: NCI-60 panel antiproliferation, SF-295; assay type: cell-based, human; settings: Homo sapiens, NCI 60-cell panel
Method: as §5

SR cells = experiment: NCI-60 panel antiproliferation, SR; assay type: cell-based, human; settings: Homo sapiens, NCI 60-cell panel
Method: as §5

IGR-OV1 cells = experiment: NCI-60 panel antiproliferation, IGR-OV1; assay type: cell-based, human; settings: Homo sapiens, IGROV-1, NCI 60-cell panel
Method: as §5

LOX IMVI cells = experiment: NCI-60 panel antiproliferation, LOX IMVI; assay type: cell-based, human; settings: Homo sapiens, NCI 60-cell panel
Method: as §5

[8] = IP 30 mg/kg, days 0,1,2,3,4,5,6

C=CC[C@H]1C[C@]2([C@H](C)Cc3cc(O)c(OC)cc3F)OCOC2=CC1=O (relative stereo) [Compound 4, 6-allyl-7a-(1-(2-fluoro-5-hydroxy-4-methoxyphenyl)propan-2-yl)-7,7a-dihydrobenzo[d][1,3]dioxol-5(6H)-one]
IC50 ([1]; NCI-H460, Table 3, read-out: NCI-H460 IC50): 15 nM
IC50 ([1]; NCI-H460, as quoted in the pharmacokinetics text, read-out: IC50 against NCI-H460 human lung cancer cells): 15 nM
IC50 (OVCAR-4 cells [2]): 6.4 nM
IC50 (MES-SA/Dx5 cells; MES-SA/Dx5, MES-SA/Dx5): 13 nM
IC50 (MES-SA/Dx5 cells; MES-SA/Dx5, paclitaxel-resistant MES-SA/Dx5): 14 nM
IC50 ([3]; Table 3): 11 nM
IC50 (UO-31 cells [4]): 7 nM
IC50 (ACHN cells): 15 nM
IC50 (MOLT-4 cells): 28 nM
Maximum Mean Body Weight Loss ([5]; IP 30 mg/kg, days 0,1,2,3,4,5): 7%
Optimal T/C ([5]; IP 30 mg/kg, days 0,1,2,3,4,5): 31%
Maximum Mean Body Weight Loss [5, 8]: 6%
Optimal T/C [5, 8]: 36%
Maximum Mean Body Weight Loss ([5]; IP 40 mg/kg, days 0,1,2,5,6,7): 9%
Optimal T/C ([5]; IP 40 mg/kg, days 0,1,2,5,6,7): 39%
IC50 (LOX-IMVI cells): 11 nM
IC50 (HCT-15 cells): < 5 nM

C=CC[C@H]1C[C@]2([C@@H](C)Cc3ccc(OC)c(F)c3)OCOC2=CC1=O [Compound 37, (6S,7aR)-6-allyl-7a-((S)-1-(3-fluoro-4-methoxyphenyl)propan-2-yl)-7,7a-dihydrobenzo[d][1,3]dioxol-5(6H)-one]
IC50 ([1]; NCI-H460, Table 4, read-out: NCI-H460 IC50): 85 nM
IC50 (786-0 cells): 120 nM
IC50 (M14 cells): 59 nM
IC50 (HOP-92 cells): > 10 µM
IC50 (OVCAR-4 cells [6]): 117 nM
IC50 (UO-31 cells [7]): 65 nM
IC50 ([3]; Table 4): 8 nM
IC50 (NCI-H23 cells): 123 nM
IC50 (T-47D cells): > 10 µM
IC50 (MDA-MB-435 cells): 28 nM
IC50 (SNB-19 cells): 73 nM
IC50 (SW-620 cells): 47 nM
IC50 (SK-Mel-5 cells): 60 nM
IC50 (NCI-H322M cells): 125 nM
IC50 (HCC-2998 cells): 129 nM
IC50 (OVCAR-5 cells): 119 nM
IC50 (SF-295 cells): 48 nM
IC50 (SR cells): 14 nM
IC50 (IGR-OV1 cells): 63 nM
IC50 (LOX IMVI cells): 27 nM
